A value given as a limit tells only on which side of the number the result lay.

The subject of this experiment is Plasmodium berghei. Briefly: Luciferase/luciferin-expressing antifolate-resistant parasites were used to infect a culture of HepG2 cells that were pre-incubated with compounds. Infected hepatocytes emit light due to the luciferase reaction. Assay results are presented as the percent inhibition of light emission compared to control. […]. Type of experiment: functional. The conditions noted are these: sporozoite; for IC50: read-out: LUCIFERASE INFECTION ASSAY - IC50; for IC90: read-out: LUCIFERASE INFECTION ASSAY - IC90.

A word on the IC50: it is the concentration needed to halve the response being measured. The IC90 is the concentration needed for an effect of 90%. With `CCCCn1c(N)c(N(CC(C)C)C(=O)c2cc(Br)c(Br)s2)c(=O)[nH]c1=O`, the IC50 stood at 8.31 µM and the IC90 stood at 9.14 µM.

For the compound `CC(C)=CC(=O)Nc1scc(-c2ccccc2)c1C(=O)OCC(=O)Nc1cc(C)on1`, the IC50 was more than 10 µM and the IC90 is more than 10 µM.

Turning to `COc1ccccc1-c1noc(COC(=O)c2c[nH]nc2-c2ccccc2)n1`, the IC50 is more than 10 µM and the IC90 was more than 10 µM.

For the compound `Cc1ccc(CN(C)C(=O)CSc2nnc(-c3ccc(C(C)(C)C)cc3)o2)c(C)c1`, the IC50 is more than 10 µM and the IC90 was more than 10 µM.

`CCOc1cc(/C=C/C(=O)c2ccc(N(C)C)cc2)cc(Br)c1OCC(=O)N(C)C`: the IC50 amounted to 2.32 µM and the concentration for an effect of 90% (IC90) came out at 4.93 µM.

On to `CCCCN(C(=O)c1csc(-c2ccc(C(C)C)cc2)n1)c1c(N)n(CCC)c(=O)[nH]c1=O`, for which the IC50 was more than 10 µM and the IC90 is more than 10 µM.

On to `O=C(NNC(=O)c1ccccc1Nc1ccccc1)c1ccccc1O`, for which the concentration for half-maximal inhibition (IC50) was 8.81 µM and the IC90 turned out to be 9.6 µM.

For the compound `CCOc1ccc(OCC)c(NC(=O)/C=C/c2c(C)nn(-c3ccccc3)c2C)c1`, the IC50 worked out at 9.19 µM and the IC90 was more than 10 µM.

As for `O=C(Cc1csc(-c2ccc(C(F)(F)F)cc2)n1)NCc1cnn(-c2ccccc2)c1`, the IC50 was more than 10 µM and the IC90 was more than 10 µM.

On to `CCN(CC)S(=O)(=O)c1ccc(O)c(NC(=O)c2ccc(SC(F)(F)F)cc2)c1`, for which the IC50 is more than 10 µM and the IC90 is more than 10 µM.

`COc1cccc(/C=C/C(=O)Nc2nc3c(s2)CN(C(=O)OC(C)(C)C)CC3)c1`: the IC50 was 0.387 µM and the IC90 was found to be 0.475 µM.

With `CCOc1cc(/C=C/C(=O)c2ccc(F)c(Br)c2)cc(Cl)c1OCC(=O)N(C)C`, the IC50 is more than 10 µM and the IC90 was more than 10 µM.

As to `CCc1ccc(N(C(=O)C2CCN(C(=O)C(C)(C)C)CC2)c2nc3ccccc3s2)cc1`, the IC50 is more than 10 µM and the IC90 is more than 10 µM.

In the case of `CCCN(Cc1nc(=O)c2ccc(Cl)cc2[nH]1)C(=O)C1CCN(c2nc3ccccc3o2)CC1`, the IC50 is more than 10 µM and the IC90 was more than 10 µM.

For `CC(C)c1cccc(NC(=O)COc2ccc(S(N)(=O)=O)cc2[N+](=O)[O-])c1`, the IC50 was more than 10 µM and the IC90 was more than 10 µM.

Take `N#Cc1ccc(NC(=O)c2cnn(Cc3ccccc3Cl)c2)cc1`: the IC50 was more than 10 µM and the IC90 is more than 10 µM.

Consider `O=C(OCc1cn(-c2ccccc2)nc1-c1ccccc1)c1ccc(N2CCOCC2)nc1`, for which the IC50 is more than 10 µM and the IC90 is more than 10 µM.

As for `CC(C)CNC(=O)CN1CCN(c2nc(-c3cccs3)nc3sc4c(c23)CCC4)CC1`, the IC50 was determined as 3.4 µM and the IC90 was determined as 3.94 µM.

Consider `COc1ccc(/C=C/C(=O)c2cc(F)c(Cl)cc2Cl)c(OC)c1OC`, for which the IC50 turned out to be 9.74 µM and the IC90 is more than 10 µM.

Regarding `N#CCCn1cc(/C=C(\C#N)c2nc3ccccc3[nH]2)c(-c2ccccc2)n1`, the IC50 is more than 10 µM and the IC90 is more than 10 µM.

For `CNC(=O)c1ccc(/C=C/C(=O)c2ccc3cccc4c3c2CC4)cc1`, the IC50 was more than 10 µM and the IC90 was more than 10 µM.

For `Cc1cccc2sc(N(Cc3ccccc3)C(=O)C3CCN(C(=O)C(C)(C)C)CC3)nc12`, the IC50 is more than 10 µM and the IC90 is more than 10 µM.

On to `C/C=C/c1ccc(OCC(O)Cn2c(=O)c(-c3ccccc3)[n+]([O-])c3ccccc32)c(OC)c1` (stereo not given), for which the IC50 amounted to 1.21 µM and the IC90 came out at 9.19 µM.

In the case of `CC(Sc1nnc(/C=C/c2ccc(F)cc2)[nH]1)C(=O)NC(C)(C)C` (stereo not given), the IC50 stood at 2.09 µM and the concentration for an effect of 90% (IC90) stood at 5.34 µM.

For `Cc1nn(-c2ccccc2)nc1C(=O)Nc1nc(CN2CCCCCC2)cs1`, the IC50 is more than 10 µM and the IC90 is more than 10 µM.

Take `CCOC(=O)c1nc(N(CCc2ccccc2)C(=O)c2cnc3c(cnn3C(C)C)c2)sc1C`: the half-inhibitory concentration (IC50) was more than 10 µM and the IC90 is more than 10 µM.

Take `CCc1noc(C)c1C(=O)OCc1csc(N(C(C)=O)c2ccccc2)n1`: the IC50 was more than 10 µM and the IC90 is more than 10 µM.

`CCCn1c(N)c(N2CCCCC2)c(=O)n(Cc2nc(N)nc(Nc3ccc(C)cc3)n2)c1=O`: the IC50 is 3.72 µM and the IC90 worked out at 4.61 µM.

Turning to `O=C(CN1c2cccc3cccc(c23)S1(=O)=O)Nc1ccc(-c2nc3ccccc3[nH]2)cc1`, the IC50 was more than 10 µM and the IC90 was more than 10 µM.

In the case of `CCCn1c(N)c(N2CCCCC2)c(=O)n(Cc2nc(N)nc(Nc3ccccc3)n2)c1=O`, the IC50 came to 2.17 µM and the IC90 came to 3.51 µM.

Turning to `COc1cc(OC)c(C(=O)/C=C/c2cccnc2)cc1Cl`, the IC50 was found to be 3.3 µM and the IC90 amounted to 3.76 µM.

With `COc1cc(NC(=O)COc2ccc3[nH]c4ccccc4c(=O)c3c2)c(OC)cc1Cl`, the IC50 is 0.246 µM and the IC90 was 2.11 µM.

As for `CCC1c2ccsc2CCN1C(=O)C1CCN(S(=O)(=O)c2ccc(Cl)c([N+](=O)[O-])c2)CC1` (stereo not given), the IC50 was more than 10 µM and the IC90 is more than 10 µM.

For `Cc1ccc(-n2c(=O)c3ccccc3n3c(SCc4nnnn4C4CC4)nnc23)c(C)c1`, the IC50 is more than 10 µM and the IC90 was more than 10 µM.

Turning to `CC(C)(Oc1ccc(Cl)cc1)C(=O)Nc1ccc(F)c(S(=O)(=O)N2CCOCC2)c1`, the IC50 was more than 10 µM and the IC90 was more than 10 µM.

On to `CCOC(=O)/C(=C\c1cccc(Br)c1)C1=Nn2c(nnc2-c2ccc(OC)cc2)SC1`, for which the IC50 was more than 10 µM and the IC90 is more than 10 µM.

Regarding `Cc1nc(=O)c(CCC(=O)Nc2ncc(Cc3cccc(C)c3Cl)s2)c(C)[nH]1`, the half-maximal inhibitory concentration (IC50) came to 8.8 µM and the IC90 is more than 10 µM.

In the case of `CCCN(Cc1nc(-c2ccccc2)c2ccccc2n1)Cc1nc2ccsc2c(=O)[nH]1`, the IC50 is more than 10 µM and the IC90 is more than 10 µM.

For `CC(C)CCn1c(SCC(=O)N2CCc3ccccc3C2)nc2ccccc2c1=O`, the IC50 was more than 10 µM and the IC90 was more than 10 µM.

For `Cc1nn(Cc2ccc(F)cc2)c2sc(C(=O)NCc3nnc4ccc(C(F)(F)F)cn34)cc12`, the IC50 is more than 10 µM and the IC90 is more than 10 µM.

Turning to `C=CCn1c(-c2ccoc2C)nn(CN(C)Cc2nc3ccccc3s2)c1=S`, the IC50 was more than 10 µM and the concentration for an effect of 90% (IC90) is more than 10 µM.

`Cc1nn(-c2ccccc2)nc1C(=O)NCc1ccccc1-c1ccc(CN(C)C)cc1`: the IC50 was found to be 3.7 µM and the IC90 came to 5.83 µM.

`CN(C1CCCCCC1)S(=O)(=O)c1ccc(-n2ncc(Cl)c(Cl)c2=O)cc1`: the IC50 is 3.55 µM and the IC90 was 5.25 µM.

On to `O=C(NC1CC1)c1cccc(NC(C(=O)Nc2cc(C(F)(F)F)ccc2Cl)c2ccccc2)c1` (stereo not given), for which the IC50 amounted to 9.94 µM and the IC90 is more than 10 µM.

As to `COc1ccc(S(=O)(=O)N2CCc3ccccc32)cc1C(=O)NOCc1ccccc1`, the IC50 is more than 10 µM and the IC90 is more than 10 µM.

For `CCCCn1c(N)c(N(CC(C)C)C(=O)CCc2ncc(-c3ccc(C)cc3)o2)c(=O)[nH]c1=O`, the IC50 was more than 10 µM and the IC90 is more than 10 µM.

With `O=C(NNC1c2ccccc2-c2ccccc21)c1ccccc1`, the IC50 was 8.58 µM and the IC90 is more than 10 µM.

Turning to `Cc1ccc(C(C)C)cc1OS(=O)(=O)c1ccc(S(=O)(=O)N(C)C)cc1[N+](=O)[O-]`, the IC50 was more than 10 µM and the IC90 was more than 10 µM.

As to `COc1ccc(-c2nn(-c3ccccc3)cc2/C=C/C(=O)OCc2ncc(Cl)n2C)cc1OC`, the IC50 was more than 10 µM and the IC90 is more than 10 µM.

`Cc1cc(C)c(S(=O)(=O)N2CCN(C(=O)/C(=C/c3cccc(F)c3)n3nnnc3C)CC2)c(C)c1`: the IC50 came to 1.61 µM and the IC90 was found to be 3.73 µM.

Take `CCC(C)c1ccccc1OS(=O)(=O)c1ccc2c(c1)NC(=O)CO2` (stereo not given): the IC50 was more than 10 µM and the IC90 was more than 10 µM.

On to `Cc1ccc(-n2nc(C)c(/C=C3\SC(=S)N(c4ccc(C(=O)O)cc4)C3=O)c2Cl)c(C)c1`, for which the IC50 turned out to be 9.42 µM and the IC90 was more than 10 µM.

As for `Cc1nn(-c2ccccc2)c(Cl)c1CSc1nnc(/C=C/c2ccc(F)cc2)[nH]1`, the IC50 is more than 10 µM and the IC90 is more than 10 µM.

On to `CC(C)C(NC(=O)c1ccc(C(C)(C)C)cc1)C(=O)Nc1ncc(Cc2ccc(Cl)cc2)s1` (stereo not given), for which the IC50 was more than 10 µM and the IC90 was more than 10 µM.

Turning to `CC(c1nc(N)nc(N(C)C)n1)N(C)Cc1ccc(-c2ccc(Br)cc2)o1` (stereo not given), the IC50 was more than 10 µM and the IC90 is more than 10 µM.

As for `CCN(CC)S(=O)(=O)c1ccc(/C=C/C(=O)N2CC=C(c3ccccc3)CC2)cc1`, the IC50 is more than 10 µM and the IC90 is more than 10 µM.

For the compound `O=C(CSc1nc2ccccc2c(=O)n1-c1ccccc1F)N1CCSC1c1ccccc1F` (stereo not given), the IC50 was more than 10 µM and the IC90 was more than 10 µM.

Regarding `O=C(NC1CC1)c1ccc(CN(C2CC2)S(=O)(=O)c2ccccc2[N+](=O)[O-])cc1`, the IC50 came to 3.41 µM and the IC90 was determined as 3.74 µM.

On to `c1ccc(-c2cn3nc(NCc4ccccc4CN4CCOCC4)sc3n2)cc1`, for which the IC50 was 1.28 µM and the IC90 is more than 10 µM.

`CC1Cc2cc(C3=NNC(=Nc4ccccc4[N+](=O)[O-])SC3)ccc2N1S(C)(=O)=O` (stereo not given): the IC50 turned out to be 5.32 µM and the IC90 is more than 10 µM.

For `N#CCCN(Cc1ccco1)C(=O)CSc1nc2ccccc2c(=O)n1-c1cccc(Cl)c1`, the IC50 was found to be 7.35 µM and the IC90 is more than 10 µM.

With `CC(C)(C)c1ccc(NC(=O)Cc2csc(NC(=O)C3CC3)n2)cc1`, the IC50 was more than 10 µM and the IC90 is more than 10 µM.

On to `Cc1ccc(OCc2nc(C(=O)Nc3cccc(S(=O)(=O)NC(C)(C)C)c3)cs2)cc1`, for which the IC50 was more than 10 µM and the IC90 was more than 10 µM.

As for `CCOc1cc2c(cc1NC(=O)CCCCCn1c(=S)[nH]c3ccccc3c1=O)OC(C)C2` (stereo not given), the IC50 is more than 10 µM and the IC90 was more than 10 µM.

For `COc1cccc2cc(C(=O)/C=C/c3c(C)nc4sc(C)cn34)oc12`, the IC50 was more than 10 µM and the IC90 is more than 10 µM.

The values above are taken from ChEMBL document CHEMBL4483862, “Open-source discovery of chemical leads for next-generation chemoprotective antimalarials” (2018).
